The source made the active and inactive calls. No cut-off for these calls is given here.
Experiments:
[1] = Induction of Hydrogen sulfide production at pH 5 to 8 measured upto 15 hrs by UV-vis method based zinc-sulfide precipitation based methylene blue Method; format: physicochemical; conditions: pH 5, 15 h
HaCaT [2] = experiment: Toxicity in human HaCaT cells assessed as H2O2-induced decrease in cell viability at 400 uM after 1 hr by CCK8 assay; format: cell-based
HaCaT [3] = experiment: Effect on mitochondrial membrane potential in human HaCaT cells after 1 hr by Rhodamine 123 staining based fluorescence assay; format: ADME, cell-based
HaCaT [4] = experiment: Cytoprotective activity in human HaCaT cells assessed as inhibition of H2O2-induced decrease in cell viability at 50 to 200 uM after 1 hr by CCK8 assay; format: functional, cell-based
HaCaT [5] = experiment: Cytoprotective activity in human HaCaT cells assessed as inhibition of H2O2-induced decrease in LDH release at 200 uM; format: functional, cell-based
HaCaT [6] = experiment: Cytoprotective in human HaCaT cells assessed as inhibition of H2O2-induced decrease in mitochondrial membrane potential at 200 uM preincubated for 1 hr followed by H2O2 addition by Rhodamine 123 staining based fluorescence assay; format: functional, cell-based

Sequence | Activity [1] | Activity (HaCaT [2]) | Activity (HaCaT [3]) | Activity (HaCaT [4]) | Activity (HaCaT [5]) | Activity (HaCaT [6])
TIOMOLIBDATE DIAMMONIUM [listing 1 of 2 here] | Active | Toxic | Non-toxic |  |  | 
TIOMOLIBDATE DIAMMONIUM [listing 2 of 2 here] |  |  |  | Active | Active | Active

Reference: ChEMBL document CHEMBL3774314, “Ammonium tetrathiomolybdate as a water-soluble and slow-release hydrogen sulfide donor” (Bioorg Med Chem Lett, 2016)
